Values quoted from earlier work, collected in patent US7642353B2, “Process of making crystalline aripiprazole” (Synthon BV, priority 2004, dated 2010).

| Compound | hygroscopicity (solid form, as taught by WO 03/26659) | water uptake (in 24 hours) |
| --- | --- | --- |
| O=C1CCc2ccc(OCCCCN3CCN(c4cccc(Cl)c4Cl)CC3)cc2N1 [Type I aripiprazole, 7-[4-[4-(2,3-dichlorophenyl)-1-piperazinyl]butoxy]-3,4-dihydrocarbostyril] | significantly hygroscopic |  |
| O=C1CCc2ccc(OCCCCN3CCN(c4cccc(Cl)c4Cl)CC3)cc2N1 [Anhydrous Form B, 7-[4-[4-(2,3-dichlorophenyl)-1-piperazinyl]butoxy]-3,4-dihydrocarbostyril] |  | less than 0.4% |
